Measured values as given in US11542259B2, “Compounds for the treatment of kinase-dependent disorders” (Exelixis, Inc., priority 2018, dated 2023).

How the values were obtained:
[1] = molecular target: Human Mer (residues R557-E882 with H628Q and R794A) (Homo sapiens (Human), UniProt Q12866); assay: Human Mer kinase assay (33P radiometric, KinaseProfiler); format: biochemical; conditions: 10 μM ATP
[2] = molecular target: Met (Homo sapiens (Human), UniProt P08581); assay: Met autophosphorylation ELISA in PC-3 cells; format: cell-based; conditions: cellular, HGF stimulated, read-out: c-Met IC50
Summary of the method: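 PC-3 cells serum-starved 3 h, treated 1 h with 8-point compound series (0.3% DMSO), then stimulated with 100 ng/mL human HGF for 10 min. Lysate phospho-Met (panTyr) measured by sandwich ELISA; IC50 from 4-parameter logistic fit against DMSO and reference-inhibitor controls.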

[3] = molecular target: KDR (Homo sapiens (Human), UniProt P35968); assay: KDR autophosphorylation ELISA in HUVEC cells; format: cell-based; conditions: cellular, VEGF165 stimulated
Summary of the method: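 Phospho-KDR levels in lysates were measured by ELISA and referenced to stimulated-vehicle (100%) and unstimulated (0%) wells, IC50 from 4-parameter logistic fit. HUVEC, starved 24 h in serum-free medium, received an 8-point compound series (0.3% DMSO) for 1 h before a 5 min 100 ng/mL VEGF165 challenge.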

Human Mer (residues R557-E882 with H628Q and R794A), sequence (Q12866 557-882, stated change not applied): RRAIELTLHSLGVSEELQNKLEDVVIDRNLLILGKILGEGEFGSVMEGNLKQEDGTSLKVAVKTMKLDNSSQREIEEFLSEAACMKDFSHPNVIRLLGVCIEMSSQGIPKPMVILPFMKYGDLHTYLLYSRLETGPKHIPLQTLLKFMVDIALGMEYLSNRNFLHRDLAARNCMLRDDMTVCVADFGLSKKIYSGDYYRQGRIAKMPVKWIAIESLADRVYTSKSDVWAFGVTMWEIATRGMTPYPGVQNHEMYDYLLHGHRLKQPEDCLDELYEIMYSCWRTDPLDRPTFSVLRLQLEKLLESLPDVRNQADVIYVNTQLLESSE
KDR, sequence (P35968 20-1356): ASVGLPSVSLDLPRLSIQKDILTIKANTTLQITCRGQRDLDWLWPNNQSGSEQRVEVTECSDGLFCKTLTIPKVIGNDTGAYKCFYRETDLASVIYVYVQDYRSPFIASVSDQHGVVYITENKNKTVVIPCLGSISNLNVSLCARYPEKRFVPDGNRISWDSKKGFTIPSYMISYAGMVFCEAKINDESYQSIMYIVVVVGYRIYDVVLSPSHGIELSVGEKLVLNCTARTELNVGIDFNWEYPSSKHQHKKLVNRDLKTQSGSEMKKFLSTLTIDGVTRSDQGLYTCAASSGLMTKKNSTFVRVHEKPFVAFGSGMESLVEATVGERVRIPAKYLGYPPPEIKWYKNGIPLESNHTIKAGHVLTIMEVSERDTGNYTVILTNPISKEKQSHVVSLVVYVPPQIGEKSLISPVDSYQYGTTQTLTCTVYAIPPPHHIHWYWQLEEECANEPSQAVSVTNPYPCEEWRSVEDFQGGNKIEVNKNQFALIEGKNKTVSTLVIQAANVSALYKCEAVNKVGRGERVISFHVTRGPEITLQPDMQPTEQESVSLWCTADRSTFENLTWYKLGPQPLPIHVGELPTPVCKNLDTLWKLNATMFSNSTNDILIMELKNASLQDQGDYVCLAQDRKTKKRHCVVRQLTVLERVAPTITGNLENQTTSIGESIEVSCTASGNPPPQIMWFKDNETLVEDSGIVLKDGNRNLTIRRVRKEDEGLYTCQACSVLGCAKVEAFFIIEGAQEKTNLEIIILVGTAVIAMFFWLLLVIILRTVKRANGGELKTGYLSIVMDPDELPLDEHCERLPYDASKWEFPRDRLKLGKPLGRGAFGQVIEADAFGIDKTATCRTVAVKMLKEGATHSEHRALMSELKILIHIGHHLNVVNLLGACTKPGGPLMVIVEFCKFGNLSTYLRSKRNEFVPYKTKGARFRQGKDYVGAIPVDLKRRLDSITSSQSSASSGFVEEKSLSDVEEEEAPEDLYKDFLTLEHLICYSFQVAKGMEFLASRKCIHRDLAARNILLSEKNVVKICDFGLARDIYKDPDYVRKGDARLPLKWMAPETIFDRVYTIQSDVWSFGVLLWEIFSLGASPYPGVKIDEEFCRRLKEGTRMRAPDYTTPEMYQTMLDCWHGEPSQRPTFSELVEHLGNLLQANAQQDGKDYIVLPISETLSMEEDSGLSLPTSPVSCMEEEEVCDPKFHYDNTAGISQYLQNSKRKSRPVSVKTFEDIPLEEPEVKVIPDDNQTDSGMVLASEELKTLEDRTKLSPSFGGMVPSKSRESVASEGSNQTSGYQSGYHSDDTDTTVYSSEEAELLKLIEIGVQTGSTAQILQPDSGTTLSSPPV
Met, sequence (P08581 25-1390): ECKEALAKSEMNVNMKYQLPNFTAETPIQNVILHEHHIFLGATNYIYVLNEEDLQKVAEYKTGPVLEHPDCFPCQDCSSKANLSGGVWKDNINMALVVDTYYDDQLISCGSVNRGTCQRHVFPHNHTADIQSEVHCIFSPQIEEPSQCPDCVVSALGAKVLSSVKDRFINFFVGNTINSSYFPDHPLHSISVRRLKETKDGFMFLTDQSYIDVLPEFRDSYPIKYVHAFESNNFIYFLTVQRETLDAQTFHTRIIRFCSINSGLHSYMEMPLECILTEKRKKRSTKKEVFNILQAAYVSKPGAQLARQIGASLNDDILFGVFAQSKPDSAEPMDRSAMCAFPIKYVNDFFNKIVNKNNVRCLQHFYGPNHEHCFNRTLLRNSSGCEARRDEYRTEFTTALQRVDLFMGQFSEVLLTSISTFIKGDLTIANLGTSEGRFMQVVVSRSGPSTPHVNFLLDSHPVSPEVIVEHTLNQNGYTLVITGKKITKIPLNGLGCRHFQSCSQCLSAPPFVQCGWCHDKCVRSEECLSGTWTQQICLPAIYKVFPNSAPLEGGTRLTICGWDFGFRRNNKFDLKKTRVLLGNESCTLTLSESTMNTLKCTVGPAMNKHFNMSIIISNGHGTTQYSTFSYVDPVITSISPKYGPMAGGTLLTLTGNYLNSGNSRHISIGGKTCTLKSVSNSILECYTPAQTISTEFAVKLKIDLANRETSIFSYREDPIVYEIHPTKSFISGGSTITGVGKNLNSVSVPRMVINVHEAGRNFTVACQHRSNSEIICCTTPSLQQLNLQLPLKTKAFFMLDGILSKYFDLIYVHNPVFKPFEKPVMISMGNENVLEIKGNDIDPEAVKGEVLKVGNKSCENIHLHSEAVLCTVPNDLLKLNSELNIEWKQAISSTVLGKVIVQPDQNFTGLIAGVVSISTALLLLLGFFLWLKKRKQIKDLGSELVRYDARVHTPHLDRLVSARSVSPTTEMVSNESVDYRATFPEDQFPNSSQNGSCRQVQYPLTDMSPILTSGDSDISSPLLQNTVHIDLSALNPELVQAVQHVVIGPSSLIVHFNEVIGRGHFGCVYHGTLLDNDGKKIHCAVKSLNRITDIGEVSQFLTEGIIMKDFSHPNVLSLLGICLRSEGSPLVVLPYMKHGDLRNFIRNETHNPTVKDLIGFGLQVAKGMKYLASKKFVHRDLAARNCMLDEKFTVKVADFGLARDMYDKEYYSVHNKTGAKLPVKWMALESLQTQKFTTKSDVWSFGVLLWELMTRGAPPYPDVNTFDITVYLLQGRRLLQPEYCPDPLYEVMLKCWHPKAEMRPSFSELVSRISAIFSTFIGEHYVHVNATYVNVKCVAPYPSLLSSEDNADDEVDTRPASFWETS

SMILES	IC50 [1]	IC50 [2]	IC50 [3]
CNC(=O)c1ccc2nccc(Oc3ccc(NC(=O)C4(C(=O)Nc5ccc(F)cc5)CC4)cc3)c2c1 [Compound 59, 1-N′-(4-fluorophenyl)-1-N-[4-[6-(methylcarbamoyl)quinolin-4-yl]oxyphenyl]cyclopropane-1,1-dicarboxamide]	10 to 100 nM	100 to 300 nM	100 to 300 nM
CN1CC(NC(=O)c2ccc3nccc(Oc4ccc(NC(=O)C5(C(=O)Nc6ccc(F)cc6)CC5)cc4)c3c2)C1 [Compound 60, 1-N′-(4-fluorophenyl)-1-N-[4-[6-[(1-methylazetidin-3-yl)carbamoyl]quinolin-4-yl]oxyphenyl]cyclopropane-1,1-dicarboxamide]	10 to 100 nM	100 to 300 nM	> 300 nM
COCCOc1cc2nccc(Oc3ccc(NC(=O)C4(C(=O)Nc5ccc(F)cc5)CC4)cc3)c2cc1C(N)=O [Compound 103, 1-N-[4-[6-carbamoyl-7-(2-methoxyethoxy)quinolin-4-yl]oxyphenyl]-1-N′-(4-fluorophenyl)cyclopropane-1,1-dicarboxamide]	≤ 10 nM	10 to 100 nM	≤ 10 nM
COC(=O)c1cc2c(Oc3ccc(NC(=O)C4(C(=O)Nc5ccc(F)cc5)CC4)cc3Cl)ccnc2cc1OC [Compound 128, methyl 4-[2-chloro-4-[[1-[(4-fluorophenyl)carbamoyl]cyclopropanecarbonyl]amino]phenoxy]-7-methoxyquinoline-6-carboxylate]	≤ 10 nM	10 to 100 nM	≤ 10 nM
COC(=O)c1cc2c(Oc3ccc(NC(=O)C4(C(=O)Nc5ccc(F)cc5)CC4)cc3F)ccnc2cc1OC [Compound 129, methyl 4-[2-fluoro-4-[[1-[(4-fluorophenyl)carbamoyl]cyclopropanecarbonyl]amino]phenoxy]-7-methoxyquinoline-6-carboxylate]	≤ 10 nM	10 to 100 nM	≤ 10 nM
CNC(=O)c1cc2c(Oc3ccc(NC(=O)C4(C(=O)Nc5ccc(F)cc5)CC4)cc3Cl)ccnc2cc1OC [Compound 134, 1-N′-[3-chloro-4-[7-methoxy-6-(methylcarbamoyl)quinolin-4-yl]oxyphenyl]-1-N-(4-fluorophenyl)cyclopropane-1,1-dicarboxamide]	≤ 10 nM	≤ 10 nM	≤ 10 nM
Cc1cc2c(Oc3ccc(NC(=O)C4(C(=O)Nc5ccc(F)cc5)CC4)cc3)ccnc2cc1C(N)=O [Compound 142, 1-N-[4-(7-carbamoyl-6-methylquinolin-4-yl)oxyphenyl]-1-N′-(4-fluorophenyl)cyclopropane-1,1-dicarboxamide]	≤ 10 nM	10 to 100 nM	10 to 100 nM
COC(=O)c1ccc2c(Oc3ccc(NC(=O)C4(C(=O)Nc5ccc(F)cc5)CC4)cc3)ccnc2c1 [Compound 162, methyl 4-[4-[[1-[(4-fluorophenyl)carbamoyl]cyclopropanecarbonyl]amino]phenoxy]quinoline-7-carboxylate]	≤ 10 nM	100 to 300 nM	10 to 100 nM
NC(=O)c1ccc2c(Oc3ccc(NC(=O)C4(C(=O)Nc5ccc(F)cc5)CC4)cc3)ccnc2c1 [Compound 164, 1-N-[4-(7-carbamoylquinolin-4-yl)oxyphenyl]-1-N′-(4-fluorophenyl)cyclopropane-1,1-dicarboxamide]	≤ 10 nM	≤ 10 nM	10 to 100 nM
CNC(=O)c1ccc2c(Oc3ccc(NC(=O)C4(C(=O)Nc5ccc(F)cc5)CC4)cc3)ccnc2c1 [Compound 165, 1-N′-(4-fluorophenyl)-1-N-[4-[7-(methylcarbamoyl)quinolin-4-yl]oxyphenyl]cyclopropane-1,1-dicarboxamide]	≤ 10 nM	≤ 10 nM	≤ 10 nM
COc1cc2nccc(Oc3ccc(NC(=O)C4(C(=O)Nc5ccc(F)cc5)CC4)cc3)c2cc1-c1cccc(C#N)c1F [Compound 175, 1-N-[4-[6-(3-cyano-2-fluorophenyl)-7-methoxyquinolin-4-yl]oxyphenyl]-1-N′-(4-fluorophenyl)cyclopropane-1,1-dicarboxamide]	≤ 10 nM	10 to 100 nM	100 to 300 nM

Now from value to compound:

IC50 [1]	IC50 [2]	IC50 [3]	SMILES
≤ 10 nM	≤ 10 nM	≤ 10 nM	COc1cc2nccc(Oc3ccc(NC(=O)C4(C(=O)Nc5ccc(F)cc5)CC4)cc3)c2cc1-c1ncco1 [Compound 45, 1-N′-(4-fluorophenyl)-1-N-[4-[7-methoxy-6-(1,3-oxazol-2-yl)quinolin-4-yl]oxyphenyl]cyclopropane-1,1-dicarboxamide]
10 to 100 nM	100 to 300 nM	100 to 300 nM	NC(=O)c1ccc2nccc(Oc3ccc(NC(=O)C4(C(=O)Nc5ccc(F)cc5)CC4)cc3)c2c1 [Compound 58, 1-N-[4-(6-carbamoylquinolin-4-yl)oxyphenyl]-1-N′-(4-fluorophenyl)cyclopropane-1,1-dicarboxamide]
10 to 100 nM	100 to 300 nM	100 to 300 nM	NC(=O)c1cc2c(Oc3ccc(NC(=O)C4(C(=O)Nc5ccc(F)cc5)CC4)cc3)ccnc2cc1F [Compound 67, 1-N-[4-(6-carbamoyl-7-fluoroquinolin-4-yl)oxyphenyl]-1-N′-(4-fluorophenyl)cyclopropane-1,1-dicarboxamide]
≤ 10 nM	≤ 10 nM	≤ 10 nM	NC(=O)c1cc2c(Oc3ccc(NC(=O)C4(C(=O)Nc5ccc(F)cc5)CC4)cc3)ccnc2cc1OCCCN1CCOCC1 [Compound 98, 1-N-[4-[6-carbamoyl-7-(3-morpholin-4-ylpropoxy)quinolin-4-yl]oxyphenyl]-1-N′-(4-fluorophenyl)cyclopropane-1,1-dicarboxamide]
10 to 100 nM	> 300 nM	> 300 nM	COc1cc2nccc(Oc3ccc(NC(=O)C4(C(=O)Nc5ccc(F)cc5)CC4)cc3Cl)c2cc1C(=O)O [Compound 130, 4-[2-chloro-4-[[1-[(4-fluorophenyl)carbamoyl]cyclopropanecarbonyl]amino]phenoxy]-7-methoxyquinoline-6-carboxylic acid]
10 to 100 nM	> 300 nM	> 300 nM	COc1cc2nccc(Oc3ccc(NC(=O)C4(C(=O)Nc5ccc(F)cc5)CC4)cc3F)c2cc1C(=O)O [Compound 131, 4-[2-fluoro-4-[[1-[(4-fluorophenyl)carbamoyl]cyclopropanecarbonyl]amino]phenoxy]-7-methoxyquinoline-6-carboxylic acid]
≤ 10 nM	≤ 10 nM	≤ 10 nM	COc1cc2nccc(Oc3ccc(NC(=O)C4(C(=O)Nc5ccc(F)cc5)CC4)cc3Cl)c2cc1C(N)=O [Compound 132, 1-N′-[4-(6-carbamoyl-7-methoxyquinolin-4-yl)oxy-3-chlorophenyl]-1-N-(4-fluorophenyl)cyclopropane-1,1-dicarboxamide]
≤ 10 nM	≤ 10 nM	≤ 10 nM	COc1cc2nccc(Oc3ccc(NC(=O)C4(C(=O)Nc5ccc(F)cc5)CC4)cc3F)c2cc1C(N)=O [Compound 133, 1-N′-[4-(6-carbamoyl-7-methoxyquinolin-4-yl)oxy-3-fluorophenyl]-1-N-(4-fluorophenyl)cyclopropane-1,1-dicarboxamide]
≤ 10 nM	≤ 10 nM	≤ 10 nM	CNC(=O)c1cc2c(Oc3ccc(NC(=O)C4(C(=O)Nc5ccc(F)cc5)CC4)cc3F)ccnc2cc1OC [Compound 135, 1-N′-[3-fluoro-4-[7-methoxy-6-(methylcarbamoyl)quinolin-4-yl]oxyphenyl]-1-N-(4-fluorophenyl)cyclopropane-1,1-dicarboxamide]
≤ 10 nM	10 to 100 nM	10 to 100 nM	COC(=O)c1cc2nccc(Oc3ccc(NC(=O)C4(C(=O)Nc5ccc(F)cc5)CC4)cc3)c2cc1C [Compound 140, methyl 4-[4-[[1-[(4-fluorophenyl)carbamoyl]cyclopropanecarbonyl]amino]phenoxy]-6-methylquinoline-7-carboxylate]
≤ 10 nM	10 to 100 nM	100 to 300 nM	CNC(=O)c1cc2nccc(Oc3ccc(NC(=O)C4(C(=O)Nc5ccc(F)cc5)CC4)cc3)c2cc1C [Compound 143, 1-N′-(4-fluorophenyl)-1-N-[4-[6-methyl-7-(methylcarbamoyl)quinolin-4-yl]oxyphenyl]cyclopropane-1,1-dicarboxamide]
≤ 10 nM	10 to 100 nM	≤ 10 nM	COC(=O)c1cc2nccc(Oc3ccc(NC(=O)C4(C(=O)Nc5ccc(F)cc5)CC4)cc3)c2cc1OC [Compound 150, methyl 4-[4-[[1-[(4-fluorophenyl)carbamoyl]cyclopropanecarbonyl]amino]phenoxy]-6-methoxyquinoline-7-carboxylate]
≤ 10 nM	100 to 300 nM	100 to 300 nM	COc1cc2c(Oc3ccc(NC(=O)C4(C(=O)Nc5ccc(F)cc5)CC4)cc3)ccnc2cc1C(N)=O [Compound 152, 1-N-[4-(7-carbamoyl-6-methoxyquinolin-4-yl)oxyphenyl]-1-N′-(4-fluorophenyl)cyclopropane-1,1-dicarboxamide]
≤ 10 nM	100 to 300 nM	10 to 100 nM	CNC(=O)c1cc2nccc(Oc3ccc(NC(=O)C4(C(=O)Nc5ccc(F)cc5)CC4)cc3)c2cc1OC [Compound 153, 1-N′-(4-fluorophenyl)-1-N-[4-[6-methoxy-7-(methylcarbamoyl)quinolin-4-yl]oxyphenyl]cyclopropane-1,1-dicarboxamide]
≤ 10 nM	10 to 100 nM	10 to 100 nM	COc1cc2nccc(Oc3ccc(NC(=O)C4(C(=O)Nc5ccc(F)cc5)CC4)cc3)c2cc1-c1ccccn1 [Compound 176, 1-N′-(4-fluorophenyl)-1-N-[4-(7-methoxy-6-pyridin-2-ylquinolin-4-yl)oxyphenyl]cyclopropane-1,1-dicarboxamide]
